Data as given in ChEMBL document CHEMBL4130426, “Namalides B and C and Spumigins K-N from the Cultured Freshwater Cyanobacterium Sphaerospermopsis torques-reginae” (J Nat Prod, 2017).
Calls of active or inactive are those of the source. No cut-off for these calls is given here.

Columns and labels:
Carboxypeptidase A1 = biological target: T1, Carboxypeptidase A1 (Bos taurus, UniProt P00730); assay: Inhibition of bovine pancreas carboxypeptidase A using N-4-(methoxyphenylazoformyl)-Phe-OH as substrate measured after 5 mins by colorimetric method
T1 sequence (P00730 whole entry): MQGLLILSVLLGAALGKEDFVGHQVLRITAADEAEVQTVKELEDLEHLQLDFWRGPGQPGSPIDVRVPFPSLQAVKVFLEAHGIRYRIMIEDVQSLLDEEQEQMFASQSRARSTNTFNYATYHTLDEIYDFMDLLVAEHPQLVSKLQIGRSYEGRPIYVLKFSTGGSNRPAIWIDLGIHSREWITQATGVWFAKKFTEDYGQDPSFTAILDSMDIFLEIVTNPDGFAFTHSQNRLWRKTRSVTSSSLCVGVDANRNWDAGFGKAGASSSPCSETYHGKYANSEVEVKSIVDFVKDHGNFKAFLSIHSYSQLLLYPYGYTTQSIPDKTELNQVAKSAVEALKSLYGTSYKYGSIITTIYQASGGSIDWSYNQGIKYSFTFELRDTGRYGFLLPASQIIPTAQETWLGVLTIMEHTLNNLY

[1] = biological target: T2, Chymotrypsin-C (Homo sapiens) (UniProt Q99895); assay: Inhibition of human pancreas chymotrypsin C up to 0.78 mM using N-succinyl-Ala-Ala-Pro-Phe p-nitroanilide as substrate pretreated for 5 mins followed by substrate addition measured after 30 mins by colorimetric method
T2 sequence (whole entry): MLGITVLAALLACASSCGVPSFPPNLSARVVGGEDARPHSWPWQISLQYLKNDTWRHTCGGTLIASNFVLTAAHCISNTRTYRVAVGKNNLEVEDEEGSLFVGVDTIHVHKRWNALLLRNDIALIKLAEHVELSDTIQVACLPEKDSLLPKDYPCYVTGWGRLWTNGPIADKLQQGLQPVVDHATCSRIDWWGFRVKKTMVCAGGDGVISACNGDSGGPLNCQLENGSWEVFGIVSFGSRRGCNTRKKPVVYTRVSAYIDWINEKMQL

Prothrombin [2] = biological target: T3, Prothrombin (Homo sapiens, UniProt P00734); assay: Inhibition of thrombin (unknown origin) up to 150 to 350 uM using N-benzoyl-Phe-Val-Arg-p-nitroanilide hydrochloride as substrate pretreated for 5 mins followed by substrate addition measured after 30 mins by colorimetric method
Prothrombin [3] = biological target: T3, Prothrombin; assay: Inhibition of thrombin (unknown origin) using N-benzoyl-Phe-Val-Arg-p-nitroanilide hydrochloride as substrate pretreated for 5 mins followed by substrate addition measured after 30 mins by colorimetric method

Compound | IC50 (Carboxypeptidase A1) [nM] | inhibition [1] | inhibition (Prothrombin [2]) | IC50 (Prothrombin [3]) [µM]
CC[C@@H](C)[C@H](NC(=O)N[C@@H]1CCCCNC(=O)[C@H](CCc2ccc(O)cc2)NC(=O)[C@H](C(C)C)NC1=O)C(=O)O | 2000 | inactive |  | 
CC[C@@H](C)[C@H](NC(=O)N[C@@H]1CCCCNC(=O)[C@H](CCc2ccc(O)cc2)NC(=O)[C@H]([C@H](C)CC)NC1=O)C(=O)O | 750 | inactive |  | 
CC1C[C@@H](C(=O)N[C@H](CO)CCCNC(=N)N)N(C(=O)[C@@H](Cc2ccc(O)cc2)NC(=O)C(O)CCc2ccc(O)cc2)C1 (stereo partly drawn) |  |  | inactive | 
CC1C[C@@H](C(=O)N[C@@H](CO)CCCNC(=N)N)N(C(=O)[C@@H](Cc2ccc(O)cc2)NC(=O)C(O)CCc2ccc(O)cc2)C1 (stereo partly drawn) |  |  | inactive | 
N=C(N)NCCC[C@H](CO)NC(=O)[C@@H]1CCCN1C(=O)[C@@H](Cc1ccc(O)cc1)NC(=O)C(O)CCc1ccc(O)cc1 (stereo partly drawn) |  |  |  | 250
N=C(N)NCCC[C@@H](CO)NC(=O)[C@@H]1CCCN1C(=O)[C@@H](Cc1ccc(O)cc1)NC(=O)C(O)CCc1ccc(O)cc1 (stereo partly drawn) |  |  |  | 250
